# Results as given in ChEMBL document CHEMBL1201862, “PubChem BioAssay data set” (2004).
#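 How tested: cells in 96-well plates exposed to compound for 48 hours at five concentrations. Abbreviation: GI50, concentration required for 50% inhibition of growth.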 Activity calls are given as the source filed them. No stated cut-off is given here; in the data, active = GI50 up to about 1.1 µM and inactive = higher.
# What was measured:
# Assay in all cases: growth of human tumour cells (NCI), 48 h
# SF-295 = tested on: SF-295
# 786-0 = tested on: 786-0
# EKVX = tested on: EKVX
# HCT-15 = tested on: HCT-15
# ACHN = tested on: ACHN
# CCRF-CEM = tested on: CCRF-CEM
# SK-MEL-5 = tested on: SK-MEL-5
# UO-31 = tested on: UO-31
# UACC-257 = tested on: UACC-257
# UACC-62 = tested on: UACC-62
# TK-10 = tested on: TK-10
# OVCAR-3 = tested on: OVCAR-3
# MOLT-4 = tested on: MOLT-4
# NCI-H522 = tested on: NCI-H522
# RXF 393 = tested on: RXF 393
# NCI-H23 = tested on: NCI-H23
# SF-539 = tested on: SF-539
# CAKI-1 = tested on: CAKI-1
# NCI-H226 = tested on: NCI-H226
Structure (SMILES),GI50 (SF-295),GI50 (786-0),GI50 (EKVX),GI50 (HCT-15),GI50 (ACHN),GI50 (CCRF-CEM),GI50 (SK-MEL-5),GI50 (UO-31),GI50 (UACC-257),GI50 (UACC-62),GI50 (TK-10),GI50 (OVCAR-3),GI50 (MOLT-4),GI50 (NCI-H522),GI50 (RXF 393),GI50 (NCI-H23),GI50 (SF-539),GI50 (CAKI-1),GI50 (NCI-H226)
O=[N+]([O-])c1cc(I)cc(/C=N/NS(=O)(=O)c2ccc(Cl)cc2)c1O,25.6 µM (inactive),21.1 µM (inactive),32.6 µM (inactive),20.4 µM,22.8 µM (inactive),25.4 µM (inactive),18 µM (inactive),20.1 µM (inactive),24.4 µM (inactive),26.1 µM (inactive),30.8 µM (inactive),19.1 µM (inactive),19.5 µM (inactive),16.9 µM (inactive),23.4 µM (inactive),16.3 µM (inactive),23 µM (inactive),22.3 µM (inactive),–
CC(=O)Nc1ccc(C(=O)N2N=C(C)/C(=C/c3ccccc3O)C2=O)cc1,> 100 µM (inactive),> 100 µM (inactive),> 100 µM (inactive),> 100 µM,> 100 µM (inactive),> 100 µM (inactive),> 100 µM (inactive),> 100 µM (inactive),> 100 µM (inactive),–,> 100 µM (inactive),> 100 µM (inactive),> 100 µM (inactive),> 100 µM (inactive),–,> 100 µM (inactive),> 100 µM (inactive),> 100 µM (inactive),> 100 µM (inactive)
COc1ccccc1/C=C(\C#N)C(=O)c1ccccc1,> 100 µM (inactive),> 100 µM (inactive),> 100 µM (inactive),> 100 µM,> 100 µM (inactive),> 100 µM (inactive),> 100 µM (inactive),> 100 µM (inactive),> 100 µM (inactive),> 100 µM (inactive),–,> 100 µM (inactive),> 100 µM (inactive),> 100 µM (inactive),–,> 100 µM (inactive),> 100 µM (inactive),> 100 µM (inactive),> 100 µM (inactive)
Cc1ccc(/C=N/C23CC4CC(CC(C4)C2)C3)cc1,> 100 µM (inactive),> 100 µM (inactive),> 100 µM (inactive),> 100 µM,> 100 µM (inactive),–,84.1 µM (inactive),–,> 100 µM (inactive),–,> 100 µM (inactive),> 100 µM (inactive),> 100 µM (inactive),–,> 100 µM (inactive),> 100 µM (inactive),> 100 µM (inactive),> 100 µM (inactive),> 100 µM (inactive)
c1nc2cscc2c2cscc12,> 100 µM (inactive),> 100 µM (inactive),–,> 100 µM,> 100 µM (inactive),> 100 µM (inactive),–,> 100 µM (inactive),> 100 µM (inactive),> 100 µM (inactive),> 100 µM (inactive),> 100 µM (inactive),> 100 µM (inactive),> 100 µM (inactive),> 100 µM (inactive),> 100 µM (inactive),> 100 µM (inactive),42.8 µM (inactive),29.2 µM (inactive)
COc1cccc(NC(=O)CSc2nnc(-c3ccc(/N=C\c4ccc(Cl)cc4)cc3)o2)c1,20.2 µM (inactive),24.5 µM (inactive),36.7 µM (inactive),17.3 µM,16.4 µM (inactive),26.6 µM (inactive),18.6 µM (inactive),18.5 µM (inactive),> 10 µM (inactive),14.3 µM (inactive),30.6 µM (inactive),–,23.4 µM (inactive),15.6 µM (inactive),18.3 µM (inactive),19.8 µM (inactive),–,–,22.8 µM (inactive)
C/C(CC(=O)Nc1ccc(Cl)cc1)=N\NC(N)=S,29 µM (inactive),> 100 µM (inactive),> 100 µM (inactive),–,9.14 µM (inactive),30 µM (inactive),26.1 µM (inactive),–,21.9 µM (inactive),4.95 µM (inactive),> 100 µM (inactive),> 100 µM (inactive),45.3 µM (inactive),47.2 µM (inactive),> 100 µM (inactive),> 100 µM (inactive),34.2 µM (inactive),–,–
CCCCCCCCCCCCCc1nnn[nH]1,19.2 µM (inactive),17.3 µM (inactive),23.4 µM (inactive),18.3 µM,19.1 µM (inactive),18.8 µM (inactive),17.7 µM (inactive),16 µM (inactive),18.7 µM (inactive),18 µM (inactive),20.6 µM (inactive),18.3 µM (inactive),–,21.8 µM (inactive),27.5 µM (inactive),24.4 µM (inactive),18.2 µM (inactive),–,22.2 µM (inactive)
CC(=O)Oc1ccc2c(=O)c(C(C)=O)coc2c1,> 100 µM (inactive),> 100 µM (inactive),> 100 µM (inactive),> 100 µM,> 100 µM (inactive),> 100 µM (inactive),> 100 µM (inactive),> 100 µM (inactive),> 100 µM (inactive),–,> 100 µM (inactive),> 100 µM (inactive),> 100 µM (inactive),> 100 µM (inactive),> 100 µM (inactive),> 100 µM (inactive),> 100 µM (inactive),> 100 µM (inactive),83.9 µM (inactive)
CCC(O)C1Cc2c(C)cc3c(c2O1)C(=O)c1ccccc1C3=O (configuration not stated),29.6 µM (inactive),25.8 µM (inactive),62.4 µM (inactive),19.6 µM,27.8 µM (inactive),31.3 µM (inactive),44.7 µM (inactive),21 µM (inactive),69 µM (inactive),28.8 µM (inactive),85.3 µM (inactive),29.4 µM (inactive),27.4 µM (inactive),21.1 µM (inactive),–,33.3 µM (inactive),–,24.5 µM (inactive),46.8 µM (inactive)
NCCn1cnc2nc(NC(=O)c3ccccc3)[nH]c(=O)c21,> 100 µM (inactive),> 100 µM (inactive),> 100 µM (inactive),> 100 µM,> 100 µM (inactive),–,–,> 100 µM (inactive),> 100 µM (inactive),–,> 100 µM (inactive),> 100 µM (inactive),> 100 µM (inactive),–,> 100 µM (inactive),> 100 µM (inactive),> 100 µM (inactive),–,> 100 µM (inactive)
Cc1ccc(S(=O)(=O)c2ccc(N)cc2)cc1,> 100 µM (inactive),> 100 µM (inactive),> 100 µM (inactive),> 100 µM,> 100 µM (inactive),> 100 µM (inactive),> 100 µM (inactive),> 100 µM (inactive),> 100 µM (inactive),> 100 µM (inactive),> 100 µM (inactive),> 100 µM (inactive),> 100 µM (inactive),–,> 100 µM (inactive),> 100 µM (inactive),> 100 µM (inactive),97.9 µM (inactive),> 10 µM (inactive)
O=C(O)c1ccc(NNc2cc(=O)[nH]c(=O)[nH]2)cc1,> 100 µM (inactive),> 100 µM (inactive),> 100 µM (inactive),> 100 µM,> 100 µM (inactive),> 100 µM (inactive),> 100 µM (inactive),> 100 µM (inactive),> 100 µM (inactive),> 100 µM (inactive),> 100 µM (inactive),> 100 µM (inactive),> 100 µM (inactive),–,> 100 µM (inactive),> 100 µM (inactive),> 100 µM (inactive),> 10 µM (inactive),> 100 µM (inactive)
O=c1[nH]n2c(=O)cc[nH]c2c1-c1nnns1,> 100 µM (inactive),> 100 µM (inactive),> 100 µM (inactive),> 100 µM,> 100 µM (inactive),> 100 µM (inactive),> 100 µM (inactive),> 100 µM (inactive),–,–,> 100 µM (inactive),> 100 µM (inactive),> 100 µM (inactive),> 100 µM (inactive),> 100 µM (inactive),> 100 µM (inactive),> 100 µM (inactive),> 100 µM (inactive),> 100 µM (inactive)
COC(=O)NC(=O)c1cn(C2CCCCC2)c(=O)[nH]c1=O,> 100 µM (inactive),> 100 µM (inactive),–,> 100 µM,> 100 µM (inactive),> 100 µM (inactive),> 100 µM (inactive),> 100 µM (inactive),> 100 µM (inactive),> 100 µM (inactive),> 100 µM (inactive),> 100 µM (inactive),> 100 µM (inactive),> 100 µM (inactive),> 100 µM (inactive),> 100 µM (inactive),> 100 µM (inactive),> 100 µM (inactive),> 100 µM (inactive)
O=C(OCCOCBr)c1ccccc1,> 100 µM (inactive),> 100 µM (inactive),> 100 µM (inactive),> 100 µM,> 100 µM (inactive),> 100 µM (inactive),> 100 µM (inactive),> 100 µM (inactive),> 100 µM (inactive),> 100 µM (inactive),> 100 µM (inactive),> 100 µM (inactive),> 100 µM (inactive),> 100 µM (inactive),–,> 100 µM (inactive),> 100 µM (inactive),> 100 µM (inactive),> 100 µM (inactive)
Cc1nn(C)c(=S)n(C)c1=O,0.571 µM (active),3.27 µM (inactive),4.83 µM (inactive),3.76 µM,0.387 µM (active),1.55 µM (inactive),–,0.229 µM (active),1.05 µM (active),0.757 µM (active),4.69 µM (inactive),4.19 µM (inactive),1.29 µM (inactive),0.275 µM (active),0.498 µM (active),0.483 µM (active),0.83 µM (active),–,7.53 µM (inactive)
